Results on six molecules are retold here after US4265885A, “Anthracyclines containing branched-chain amino-deoxy sugars” (Farmitalia Carlo Erba S.p.A., priority 1978, dated 1981).

≈ marks a conversion by molar mass, not a printed value. Like-named read-outs stand apart in the source and are kept apart here.

The subject of data set [1] is HeLa cells. Kind of data set: Activity on HeLa cells viability in vitro. The class given is cell-based. Conditions: Homo sapiens, read-out: ID50 (Inhibiting Dose 50%).
The subject of data set [2] is P 388 leukemia. Kind of data set: Activity against P 388 leukemia in mice (survival). The class given is in vivo. The note with it: as hydrochloride. Here is the method:
(§1) The new anthracycline glycosides described in the invention, display antitumor activity. The compounds have been tested against HeLa cells "in vitro" (time of exposure to the drugs: 24 hours) and on P 388 leukemia in mice in comparison with daunorubicin and doxorubicin. The results of the "in vitro" tests, shown in Table I are reported as ID50 (Inhibiting Dose 50% in ng/ml).
(§2) The antitumor activity was tested "in vivo" on P 388 leukemia in comparison with daunorubicin and doxorubicin.
(§3) ^(a) Mice were treated i.p. on day 1 after tumor cell inoculation.
^(b) Median survival time of treated mice, over median survival time

A short description of data set [3]: Toxic deaths in mice treated in the P 388 leukemia test. The class given is in vivo. The note with it: as hydrochloride. How it is done:
as §1, §2, §3

Where [4] appears, read: dose 2.9 mg/kg i.p. on day 1 after tumor cell inoculation.
[5] abbreviates: dose 4.4 mg/kg i.p. on day 1 after tumor cell inoculation.
[6] abbreviates: dose 6.6 mg/kg i.p. on day 1 after tumor cell inoculation.
Where [7] appears, read: HeLa cells viability in vitro, time of exposure to the drugs: 24 hours, compounds as hydrochloride.
The mark [8] stands for this setting: dose 10.0 mg/kg i.p. on day 1 after tumor cell inoculation.
The mark [9] stands for this setting: dose 22.5 mg/kg i.p. on day 1 after tumor cell inoculation.
Setting [10] is: dose 33.7 mg/kg i.p. on day 1 after tumor cell inoculation.
Setting [11] is: dose 50.5 mg/kg i.p. on day 1 after tumor cell inoculation.

For the molecule `COc1cccc2c1C(=O)c1c(O)c3c(c(O)c1C2=O)C[C@@](O)(C(C)=O)C[C@@H]3O[C@H]1C[C@H](N)[C@H](O)[C@H](C)O1` [Daunorubicin, reference compound], in data set [1] (HeLa, 24 h), the IC50 is 0.01 µg/mL (≈ 0.019 µM). The results for the “T/C (median survival time of treated mice over median survival time of control × 100)” value in data set [2] (setting [4]), in data set [2] (setting [5]) and in data set [2] (setting [6]) were 163%, 161% and 156%, respectively. Further, the “No. of toxic deaths/total” value in data set [3] (setting [4]) is listed as 0/48; in data set [3] (setting [5]), 3/48; in data set [3] (setting [6]), 28/48.

Consider `COc1cccc2c1C(=O)c1c(O)c3c(c(O)c1C2=O)C[C@@](O)(C(C)=O)C[C@@H]3O[C@H]1C[C@H](N)[C@@](C)(OC)[C@H](C)O1` [4'-Epi-4'-C-methyl-4'-O-methyl-daunomycin], for which the IC50 in data set [1] (setting [7]) was in the range of 0.0025 to 0.0034 µg/mL (≈ 0.0045 to 0.00612 µM). Moreover, the “T/C (median survival time of treated mice over median survival time of control × 100)” value in data set [2] (setting [6]) amounted to 140%; in data set [2] (setting [8]), 147%; in data set [2] (setting [9]), 150%. Moreover, the “No. of toxic deaths/total” value in data set [3] (setting [6]), in data set [3] (setting [8]) and in data set [3] (setting [9]) was 0/8 in each case.

In the case of `COc1cccc2c1C(=O)c1c(O)c3c(c(O)c1C2=O)C[C@@](O)(C(=O)CO)C[C@@H]3O[C@H]1C[C@H](N)[C@](C)(OC)[C@H](C)O1` [4'-C-Methyl-4'-O-methyl-adriamycin], the IC50 in data set [1] (setting [7]) stood at 0.005 µg/mL (≈ 0.00875 µM). Also, the “T/C (median survival time of treated mice over median survival time of control × 100)” value worked out at 165% in data set [2] (setting [5]), 172% in data set [2] (setting [6]) and 202% in data set [2] (setting [8]). The figures for the “No. of toxic deaths/total” value in data set [3] (setting [5]), in data set [3] (setting [6]) and in data set [3] (setting [8]) were 0/10, 0/10 and 2/17, respectively.

For the molecule `COc1cccc2c1C(=O)c1c(O)c3c(c(O)c1C2=O)C[C@@](O)(C(=O)CO)C[C@@H]3O[C@H]1C[C@H](N)[C@@](C)(OC)[C@H](C)O1` [4'-Epi-4'-C-methyl-4'-O-methyl-adriamycin], the IC50 in data set [1] (setting [7]) was determined as 0.027 µg/mL (≈ 0.0472 µM). Also, the “T/C (median survival time of treated mice over median survival time of control × 100)” value is on record as 165% in data set [2] (setting [5]), 185% in data set [2] (setting [6]) and 205% in data set [2] (setting [8]). The “No. of toxic deaths/total” value in data set [3] (setting [5]), in data set [3] (setting [6]) and in data set [3] (setting [8]) was 0/8 throughout.

Regarding `COc1cccc2c1C(=O)c1c(O)c3c(c(O)c1C2=O)C[C@@](O)(C(C)=O)C[C@@H]3O[C@H]1C[C@H](N)[C@](C)(OC)[C@H](C)O1` [4'-C-methyl-4'-O-methyl-daunorubicin (V), 4'-C-Methyl-4'-O-methyl-daunomycin], in data set [1] (setting [7]), the IC50 was determined as 0.034 µg/mL (≈ 0.0612 µM). The “T/C (median survival time of treated mice over median survival time of control × 100)” value amounted to 140% in data set [2] (setting [6]), 155% in data set [2] (setting [9]), 150% in data set [2] (setting [10]) and 137% in data set [2] (setting [11]). Also, the “No. of toxic deaths/total” value in data set [3] (setting [6]) is recorded as 0/18; in data set [3] (setting [9]) it was 0/20; in data set [3] (setting [10]) it was 0/26; in data set [3] (setting [11]), 1/5.

In the case of `COc1cccc2c1C(=O)c1c(O)c3c(c(O)c1C2=O)C[C@@](O)(C(=O)CO)C[C@@H]3O[C@H]1C[C@H](N)[C@H](O)[C@H](C)O1` [Doxorubicin, reference compound], in data set [1] (HeLa, 24 h), the IC50 was 0.01 µg/mL (≈ 0.0184 µM). In addition, the “T/C (median survival time of treated mice over median survival time of control × 100)” value was found to be 190% in data set [2] (setting [5]), 201% in data set [2] (setting [6]) and 241% in data set [2] (setting [8]). In addition, the “No. of toxic deaths/total” value is 0/28 in data set [3] (setting [5]), 0/28 in data set [3] (setting [6]) and 5/28 in data set [3] (setting [8]).
